# Assay results published in patent US20260297083A1, “SUBSTITUTED ACETYLENE COMPOUND DERIVATIVES AND THEIR PHARMACEUTICAL USE” (AVELOS THERAPEUTICS INC., priority 2023, published 2026).
# Test system: DLD-1 BRCA2(−/−) Cell
# Test: Cell viability assay (Resazurin) in DLD1-BRCA2 cells
# Assay type: cell-based
# Conditions: Homo sapiens, DLD-1, 336 h, 14 days, 1,500 cells/well, final DMSO 1%
# Method: DLD1-BRCA2 KG (Horizon Discovery, Cat #HD 105-007) cells and DLD1-parental cells were maintained in culture media (RPMI-1640 including 2 mM L-glutamin and 25 mM sodium bicarbonate, supplemented with 10% FBS), at 37° C. in a humidified atmosphere with 5% CO2. Cells were seeded at the final concentration of 1,500 cells/well (DLD1-BRCA2 KG) and 600 cells/well (DLD1-parental) in a 96-well plate. Four hours later, test compounds were added (the final concentration of DMSO was 1%) to the cells and media were replaced every 3-4 days for 14 days. To measure viability, cells were incubated in culture media supplemented with 0.1 mg/ml of Resazurin (Merck, Cat #R7017) for 4 hours. The fluorescence was measured at Ex/Em=560 nm/590 nm using EnSight multimode plate reader (Perkin Elmer). Data analysis and IC50 calculation was done using GraphPad Prism (Version 10.0.2).
row,Structure (SMILES),IC50
1,"Cc1cc(C(F)(F)F)cc(N2[C@H](C(=O)N(CC#Cc3ccc(=O)[nH]n3)c3ccc(F)c(C)c3)CCS2(=O)=O)n1 [Example 26, (S)-N-(4-fluoro-3-methylphenyl)-2-(6-methyl-4-(trifluoromethyl)pyridin-2-yl)-N-(3-(6-oxo-1,6-dihydropyridazin-3-yl)prop-2-yn-1-yl)isothiazolidine-3-carboxamide 1,1-dioxide]",< 1 µM
2,"COc1ccc(C#CCN(C(=O)[C@@H]2CCS(=O)(=O)N2c2cc(C(F)(F)F)cc(C)n2)c2ccc(F)c(C)c2)nn1 [Example 27, (S)-N-(4-fluoro-3-methylphenyl)-N-(3-(6-methoxypyridazin-3-yl)prop-2-yn-1-yl)-2-(6-methyl-4-(trifluoromethyl)pyridin-2-yl)isothiazolidine-3-carboxamide 1,1-dioxide]",< 1 µM
3,"Cc1cc(C(F)(F)F)cc(N2[C@H](C(=O)N(CC#Cc3ccc(OC(F)F)nn3)c3ccc(F)c(C)c3)CCS2(=O)=O)n1 [Example 28, (S)-N-(3-(6-(difluoromethoxy)pyridazin-3-yl)prop-2-yn-1-yl)-N-(4-fluoro-3-methylphenyl)-2-(6-methyl-4-(trifluoromethyl)pyridin-2-yl)isothiazolidine-3-carboxamide 1,1-dioxide]",< 1 µM
4,Cc1cc(C(F)(F)F)cc(N2[C@H](C(=O)N(CC#Cc3ccc(C(N)=O)nn3)c3ccc(F)c(C)c3)CCS2(=O)=O)n1 [Example 29],< 1 µM
5,"Cc1cc(C(F)(F)F)cc(N2[C@H](C(=O)N(CC#Cc3cnc(N)cn3)c3ccc(F)c(C)c3)CCS2(=O)=O)n1 [Example 30, (S)-N-(3-(5-aminopyrazin-2-yl)prop-2-yn-1-yl)-N-(4-fluoro-3-methylphenyl)-2-(6-methyl-4-(trifluoromethyl)pyridin-2-yl)isothiazolidine-3-carboxamide 1,1-dioxide]",1.1 to 5 µM
6,"Cc1cc(C(F)(F)F)cc(N2[C@@H](C(=O)N(CC#Cc3cnc(N)cn3)c3ccc(F)c(C)c3F)CCS2(=O)=O)n1 [Example 31, (R)-N-(3-(5-aminopyrazin-2-yl)prop-2-yn-1-yl)-N-(2,4-diffuoro-3-methylphenyl)-2-(6-methyl-4-(trifluoromethyl)pyridin-2-yl)isothiazolidine-3-carboxamide 1,1-dioxide]",> 5.1 µM
7,"Cc1ccc(F)c(N(CC#Cc2cnc(N)cn2)C(=O)[C@@H]2CCS(=O)(=O)N2c2cc(C(F)(F)F)cc(C)n2)c1 [Example 33, (S)-N-(3-(5-aminopyrazin-2-yl)prop-2-yn-1-yl)-N-(2-fluoro-5-methylphenyl)-2-(6-methyl-4-(trifluoromethyl)pyridin-2-yl)isothiazolidine-3-carboxamide 1,1-dioxide]",< 1 µM
8,"CC(=O)Nc1cnc(C#CCN(C(=O)[C@@H]2CCS(=O)(=O)N2c2cc(C(F)(F)F)cc(C)n2)c2ccc(F)c(C)c2)cn1 [Example 34, (S)-N-(3-(5-acetamidopyrazin-2-yl)prop-2-yn-1-yl)-N-(4-fluoro-3-methylphenyl)-2-(6-methyl-4-(trifluoromethyl)pyridin-2-yl)isothiazolidine-3-carboxamide 1,1-dioxide]",1.1 to 5 µM
9,"Cc1cc(C(F)(F)F)cc(N2[C@H](C(=O)N(CC#Cc3cnc(NC(N)=O)cn3)c3ccc(F)c(C)c3)CCS2(=O)=O)n1 [Example 35, (S)-N-(4-fluoro-3-methylphenyl)-2-(6-methyl-4-(trifluoromethyl)pyridin-2-yl)-N-(3-(5-ureidopyrazin-2-yl)prop-2-yn-1-yl)isothiazolidine-3-carboxamide 1,1-dioxide]",1.1 to 5 µM
10,"Cc1cc(C(F)(F)F)cc(N2[C@H](C(=O)N(CC#Cc3cnc(NC(C)C)cn3)c3ccc(F)c(C)c3)CCS2(=O)=O)n1 [Example 36, (S)-N-(4-fluoro-3-methylphenyl)-N-(3-(5-(isopropylamino)pyrazin-2-yl)prop-2-yn-1-yl)-2-(6-methyl-4-(trifluoromethyl)pyridin-2-yl)isothiazolidine-3-carboxamide 1,1-dioxide]",< 1 µM
11,"Cc1ccc(F)c(N(CC#Cc2cnc(NC(C)C)cn2)C(=O)[C@@H]2CCS(=O)(=O)N2c2cc(C(F)(F)F)cc(C)n2)c1 [Example 37, (S)-N-(2-fluoro-5-methylphenyl)-N-(3-(5-(isopropylamino)pyrazin-2-yl)prop-2-yn-1-yl)-2-(6-methyl-4-(trifluoromethyl)pyridin-2-yl)isothiazolidine-3-carboxamide 1,1-dioxide]",1.1 to 5 µM
12,"Cc1cc(C(F)(F)F)cc(N2[C@H](C(=O)N(CC#Cc3cnc(N4CC5(COC5)C4)cn3)c3ccc(F)c(C)c3)CCS2(=O)=O)n1 [Example 38, (S)-N-(3-(5-(2-oxa-6-azaspiro[3.3]heptan-6-yl)pyrazin-2-yl)prop-2-yn-1-yl)-N-(4-fluoro-3-methylphenyl)-2-(6-methyl-4-(trifluoromethyl)pyridin-2-yl)isothiazolidine-3-carboxamide 1,1-dioxide]",1.1 to 5 µM
13,"Cc1cc(C(F)(F)F)cc(N2[C@H](C(=O)N(CC#Cc3cnc(N4CCOCC4)cn3)c3ccc(F)c(C)c3)CCS2(=O)=O)n1 [Example 39, (S)-N-(4-fluoro-3-methylphenyl)-2-(6-methyl-4-(trifluoromethyl)pyridin-2-yl)-N-(3-(5-orpholinopyrazin-2-yl)prop-2-yn-1-yl)isothiazolidine-3-carboxamide 1,1-dioxide]",< 1 µM
14,"Cc1ccc(F)c(N(CC#Cc2cnc(N3CCOCC3)cn2)C(=O)[C@@H]2CCS(=O)(=O)N2c2cc(C(F)(F)F)cc(C)n2)c1 [Example 40, (S)-N-(2-fluoro-5-methylphenyl)-2-(6-methyl-4-(trifluoromethyl)pyridin-2-yl)-N-(3-(5-morpholinopyrazin-2-yl)prop-2-yn-1-yl)isothiazolidine-3-carboxamide 1,1-dioxide]",1.1 to 5 µM
15,"Cc1ccc(F)c(N(CC#Cc2cnc(N3CCOCC3)cn2)C(=O)[C@H]2CCS(=O)(=O)N2c2cc(C(F)(F)F)cc(C)n2)c1 [Example 41, (R)-N-(2-fluoro-5-methylphenyl)-2-(6-methyl-4-(trifluoromethyl)pyridin-2-yl)-N-(3-(5-morpholinopyrazin-2-yl)prop-2-yn-1-yl) isothiazolidine-3-carboxamide 1,1-dioxide]",> 5.1 µM
16,"Cc1cc(C(F)(F)F)cc(N2[C@H](C(=O)N(CC#Cc3cncc(N4CCOCC4)n3)c3ccc(F)c(C)c3)CCS2(=O)=O)n1 [Example 42, (S)-N-(4-fluoro-3-methylphenyl)-2-(6-methyl-4-(trifluoromethyl)pyridin-2-yl)-N-(3-(6-morpholinopyrazin-2-yl)prop-2-yn-1-yl)isothiazolidine-3-carboxamide 1,1-dioxide]",< 1 µM
17,Cc1cc(C(F)(F)F)cc(N2[C@H](C(=O)N(CC#Cc3ncc(N4CCOCC4)nc3N)c3ccc(F)c(C)c3)CCS2(=O)=O)n1 [Example 43],1.1 to 5 µM
18,"Cc1cc(C(F)(F)F)cc(N2[C@H](C(=O)N(CC#Cc3cnc(N4CCOCC4)c(N)n3)c3ccc(F)c(C)c3)CCS2(=O)=O)n1 [Example 44, (S)-N-(3-(6-amino-5-morpholinopyrazin-2-yl)prop-2-yn-1-yl)-N-(4-fluoro-3-methylphenyl)-2-(6-methyl-4-(trifluoromethyl)pyridin-2-yl)isothiazolidine-3-carboxamide 1,1-dioxide]",1.1 to 5 µM
19,"Cc1cc(C(F)(F)F)cc(N2[C@H](C(=O)N(CC#Cc3cnc(N4CCOCC4)c(C)n3)c3ccc(F)c(C)c3)CCS2(=O)=O)n1 [Example 45, (S)-N-(4-fluoro-3-methylphenyl)-2-(6-methyl-4-(trifluoromethyl)pyridin-2-yl)-N-(3-(6-methyl-5-morpholinopyrazin-2-yl)prop-2-yn-1-yl)isothiazolidine-3-carboxamide 1,1-dioxide]",< 1 µM
20,"Cc1cc(C(F)(F)F)cc(N2[C@H](C(=O)N(CC#Cc3cnc(N4CCOCC4)c(C(F)(F)F)n3)c3ccc(F)c(C)c3)CCS2(=O)=O)n1 [Example 46, (S)-N-(4-fluoro-3-methylphenyl)-2-(6-methyl-4-(trifluoromethyl)pyridin-2-yl)-N-(3-(5-morpholino-6-(trifluoromethyl)pyrazin-2-yl)prop-2-yn-1-yl)isothiazolidine-3-carboxamide 1,1-dioxide]",1.1 to 5 µM
21,"Cc1cc(C(F)(F)F)cc(N2[C@H](C(=O)N(CC#Cc3cnc(N4C[C@@H](C)O[C@@H](C)C4)cn3)c3ccc(F)c(C)c3)CCS2(=O)=O)n1 [Example 47, (S)-N-(3-(5-((2S,6R)-2,6-dimethylmorpholino)pyrazin-2-yl)prop-2-yn-1-yl)-N-(4-fluoro-3-methylphenyl)-2-(6-methyl-4-(trifluoromethyl)pyridin-2-yl)isothiazolidine-3-carboxamide 1,1-dioxide]",1.1 to 5 µM
22,"Cc1cc(C(F)(F)F)cc(N2[C@H](C(=O)N(CC#Cc3cnc(N4CC5CCC(C4)O5)cn3)c3ccc(F)c(C)c3)CCS2(=O)=O)n1 [Example 48, (3S)-N-(3-(5-(8-oxa-3-azabicyclo[3.2.1]octan-3-yl)pyrazin-2-yl)prop-2-yn-1-yl)-N-(4-fluoro-3-methylphenyl)-2-(6-methyl-4-(trifluoromethyl)pyridin-2-yl)isothiazolidine-3-carboxamide 1,1-dioxide]",< 1 µM
23,"Cc1cc(C(F)(F)F)cc(N2[C@H](C(=O)N(CC#Cc3cnc(N4C5CCC4COC5)cn3)c3ccc(F)c(C)c3)CCS2(=O)=O)n1 [Example 49, (3S)-N-(3-(5-(3-oxa-8-azabicyclo[3.2.1]octan-8-yl)pyrazin-2-yl)prop-2-yn-1-yl)-N-(4-fluoro-3-methylphenyl)-2-(6-methyl-4-(trifluoromethyl)pyridin-2-yl)isothiazolidine-3-carboxamide 1,1-dioxide]",< 1 µM
